# Laboratory results as given in PMC11219871, “Epigenetic-based differentiation therapy for Acute Myeloid Leukemia” (Nature Communications, 2024).
# Values joined by “and” are separate entries in the source; they are usually repeats but may differ in a detail not shown here. Equal entries are not always repeated. Where two headings read alike, the source gives them in different places.
# How the values were obtained:
# ML-2 [1] = experiment: Differentiation-apoptosis assay, CD11b / annexin-V / Sytox Green / myeloid markers flow cytometry; format: cell-based, human; set-up: Cell viability: concentration or dose not given beside the values; CD11b levels: unit not given here; settings: for CD11b / Cell viability: replicates (Fig 4A)
# Experimental: Next, the cells were washed twice with phosphate-buffered saline (PBS) and resuspended in 1X Binding Buffer at a concentration of 1 × 10^6 cells/mL. An 8-µL aliquot of APC-CD11b (BD Pharmingen, Franklin Lakes, NJ, USA) and 1 µL of FITC annexin-V (AV) (BD Pharmingen, Franklin Lakes, NJ, USA) antibodies were added and incubated for 15 min at room temperature in the dark. Finally, after the addition of 400 µL of 1X Binding Buffer to each tube, samples were collected on a BD FACSCanto flow cytometer (Becton Dickinson, San Jose, CA, USA) and analyzed using FlowJo software.
# For the rest of experiments, the mix of antibodies (2 µL of BV786-CD13, Cat No, 744748 BD; 1 µL of diluted 1:10 antibody of PB-HLADR, Cat No 307633, Biolegend; 5 µL of APCH7-CD14, Cat No 641394, BD) was added to 10 µL of Brilliant Stain Buffer Plus (Becton Dickinson, San Jose, CA, USA). Then, 1 million cells (volume of 250 µL) were added and incubated for 30 min at room temperature in darkness. After 10 min incubation at room temperature with 2 mL of FACSLysing 1X, cells were centrifuged at 540 g for 5 min and washed twice with FACSBuffer. Finally, after centrifugation at 540 g for 5 min cells were resuspended in FACSBuffer.
# ML-2 [2] = experiment: Acetylome analysis (Acetyl-K enrichment, LC-MS/MS); format: cell-based, human; settings: for Acetyl-K sites regulated, Number, Histone proteins / Acetyl-K sites regulated, Number, Non-histone proteins / Acetyl-K sites regulated, Percentages, Histone proteins / Acetyl-K sites regulated, Percentages, Non-histone proteins: Fig 4G; for Acetyl-K sites, Down-regulated / Acetyl-K sites, Up-regulated: Fig. 4C; for regulated Acetyl-K sites in Histone proteins / regulated Acetyl-K sites in Non-histone proteins: Fig. 4G; for percentage of Acetyl-K sites regulated: of 3618 quantified
# Experimental: Cellular pellets were lysed for 15 min at 95 °C in 4% SDS, 100 mM Hepes/NaOH pH 8.0, containing 5 mM sodium butyrate and 5 mM Nicotinamide. After cooling down, lysates were incubated at 25 °C with 10 units of DNAse (Benzonase, Merk) and sonicated for 15 min in a Bioruptor for DNA shearing. Protein concentration was determined using microBCA, using BSA as standard. Samples were digested using on-bead protein aggregation capture (PAC) with ReSyn Biosciences MagReSyn® Hydoxyl microparticles (ratio Protein/Beads 1:5) in an automated King Fisher instrument (Thermo). Proteins were digested for 16 h at 37 C with LysC/Trypsin mix at a protein: enzyme ratio of 1:100 in 50 mM TEAB pH 8.0 (Trypsin Sequence grade, Sigma; LysC, Wako). The resulting peptides were speed-vac dried and dissolved in 100 µL of 200 mM HEPES pH 8.5.
# Peptides (500 µg) were labeled with Thermo Scientific TMTpro 18plex™ Isobaric reagents for 1 h at 25 C. Reaction was quenched by adding 5% hydroxylamine for 15 min. Samples were pooled at a 1:1 ratio based on the total peptide amount, determined by comparing overall signal intensities on a regular LC-MS/MS run. The final mixture was desalted using a 500 mg Sep-Pak C18t cartridge (Waters) and dried prior to high pH reverse phase HPLC pre-fractionation.
# Labeled peptides were fractionated offline through a high pH reverse phase chromatography using an Ultimate 3000 HPLC system equipped with a sample collector. Briefly, peptides were dissolved in 1200 µL of Buffer A (10 mM NH4OH) and loaded onto a XBridge BEH130 C18 column (3.5 µm, 250 mm length and 3.5 mm ID, Waters). Buffer B was composed of 10 mM NH4OH in 90% CH3CN. The following gradient was used at a flow rate of 500 µL/min: 0-50 min 0-25% B, 50-56 min 25-60% B, 56-57 min 60-90% B. One-minute fractions (500 µL) from […] were collected and neutralized with 10% formic acid. Based on the UV absorbance at 280 nm, 95% of the volume of 40 fractions was pooled in 5 fractions for Acetyl-Lysine enrichment. The 5% of these fractions was kept for proteome analysis. Pooled fractions were snap-frozen and lyophilized.
# Lyophilized peptides (1.5 mg) from each pool were immuno-affinity purified with the PTMScan HS Acetyl-Lysine Motif (Ac−K) kit (Cell Signaling Technology). For each pool, three consecutive immuno-purifications (IPs) were performed using the manufacturer’s protocol in an automated King Fisher instrument (Thermo). Elution of purified peptides was performed in two consecutive steps of 50 μl of 0.15% TFA. Samples were desalted with C18 stage tips and eluates were vacuum dried and resuspended in 0.1% formic acid for subsequent analysis by LC−MS/MS.
# LC-MS/MS was done by coupling an UltiMate 3000 RSLCnano LC system to an Orbitrap Exploris 480 mass spectrometer (Thermo Fisher Scientific). Samples were loaded into a trap column (Acclaim™ PepMap™ 100 C18 LC Columns 5 µm, 20 mm length) for 3 min at a flow rate of 10 µL/min in 0.1% FA. Peptides were then transferred to an EASY-Spray PepMap RSLC C18 column (Thermo) (2 µm, 75 µm x 50 cm) operated at 45 °C and separated using a 90 min effective gradient (buffer A: 0.1% FA; buffer B: 100% ACN, 0.1% FA) at a flow rate of 250 nL/min. The gradient used was, from 4% to 6% of buffer B the first 2 min, from 6% to 33% B the next 58 min, plus 10 additional minutes at 98% B.
# The mass spectrometer was operated in a data-dependent mode, with an automatic switch between MS and MS/MS scans using a top 15 method. (Intensity threshold ≥ 1e4, dynamic exclusion of 20 sec and excluding charges unassigned, +1 and ≥ +7). MS spectra were acquired from 350 to 1500 m/z with a resolution of 60,000 FMHW (200 m/z). Ion peptides were isolated using a 0.7 Th window and fragmented using higher-energy collisional dissociation (HCD) with a normalized collision energy NCE of 36. MS/MS spectra were acquired with a fixed first mass of 120 m/z and a resolution of 45,000 FMHW (200 m/z). […]
# [3] = ML-2, first (superseded) acetylome experiment, peer review file
# [4] = distribution of acetylated sites in the acetylated proteins (Fig 4D)
# [5] = ML-2, daily treatment, time 0 days, replicates 1-3 (Figure 2B)
# [6] = ML-2, daily treatment, time 2 days, replicates 1-3 (Figure 2B)
# [7] = ML-2, daily treatment, time 4 days, replicates 1-3 (Figure 2B)
# [8] = ML-2, daily treatment, time 6 days, replicates 1-3 (Figure 2B)
# [9] = ML-2, daily treatment, time 8 days, replicates 1-3 (Figure 2B)
smiles,measurement,setting,value
"O=C(CCCCCCC(=O)Nc1ccccc1)NO [Vorinostat, reference compound]",CD11b,"ML-2 [1]; ML-2, 48 h",25.0% and 20.7% and 16.1%
same,Cell viability,"ML-2 [1]; ML-2, 48 h",86.1% and 82.9% and 82.7%
same,"Acetyl-K sites regulated, Number, Histone proteins",ML-2 [2],40
same,"Acetyl-K sites regulated, Number, Non-histone proteins",ML-2 [2],469
same,"Acetyl-K sites regulated, Percentages, Histone proteins",ML-2 [2],7.9
same,"Acetyl-K sites regulated, Percentages, Non-histone proteins",ML-2 [2],92.1
same,"Acetyl-K sites: Down-regulated, %",ML-2 [2]; ML-2 (Fig 4C),7.7%
same,"Acetyl-K sites: Down-regulated, Number",ML-2 [2]; ML-2 (Fig 4C),232
same,"Acetyl-K sites: Non-regulated, %",ML-2 [2]; ML-2 (Fig 4C),85.9%
same,"Acetyl-K sites: Non-regulated, Number",ML-2 [2]; ML-2 (Fig 4C),3109
same,Acetyl-K sites: Quantified (total number),ML-2 [2]; ML-2 (Fig 4C),3618
same,"Acetyl-K sites: Regulated, %",ML-2 [2]; ML-2 (Fig 4C),14.1%
same,"Acetyl-K sites: Regulated, Number",ML-2 [2]; ML-2 (Fig 4C),509
same,"Acetyl-K sites: Up-regulated, Number",ML-2 [2]; ML-2 (Fig 4C),277
same,fraction of regulated acetylation sites upregulated,"ML-2 [2]; ML-2, 25% GI50, 12 h",54.4%
same,"Acetyl-K sites, Down-regulated","ML-2 [2]; ML-2, 25% GI50, 12 h",232
same,"Acetyl-K sites, Up-regulated","ML-2 [2]; ML-2, 25% GI50, 12 h",277
same,regulated Acetyl-K sites in Histone proteins,"ML-2 [2]; ML-2, 25% GI50, 12 h",40
same,regulated Acetyl-K sites in Non-histone proteins,"ML-2 [2]; ML-2, 25% GI50, 12 h",469
same,percentage of Acetyl-K sites regulated,"ML-2 [2]; ML-2, 25% GI50, 12 h",14.1%
same,acetyl K-sites regulated specifically by the compound,ML-2 [2]; [3],121
same,fraction of regulated acetylation sites upregulated,ML-2 [2]; [3],37.3%
same,Number of proteins with 1 Acetyl-K site per protein,ML-2 [2]; [4],298
same,Number of proteins with 2 Acetyl-K sites per protein,ML-2 [2]; [4],54
same,Number of proteins with 3 Acetyl-K sites per protein,ML-2 [2]; [4],16
same,Number of proteins with 4 Acetyl-K sites per protein,ML-2 [2]; [4],5
same,Number of proteins with >5 Acetyl-K sites per protein,ML-2 [2]; [4],6
"COc1cc2nc(-c3ccc(C)o3)cc(NCC3CCN(c4ncc(C(=O)NO)cn4)CC3)c2cc1OC [CM-444, 2-[4-[[[6,7-dimethoxy-2-(5-methyl-2-furyl)-4-quinolyl]amino]methyl]-1-piperidyl]pyrimidine-5-carbohydroxamic acid]",percentage of CD11b,"ML-2 [1]; ML-2, 260 nM CM-444 or 210 nM CM-1758 daily for 4 days, before injection",> 90%
same,CD11b (%),"ML-2 [1]; ML-2, 48 h",80.1%
same,CD13 (%),"ML-2 [1]; ML-2, 48 h",100%
same,CD14 (%),"ML-2 [1]; ML-2, 48 h",5.20%
same,HLA-DR (%),"ML-2 [1]; ML-2, 48 h",35.7%
same,CD11b,"ML-2 [1]; ML-2, 48 h",89.5% and 75.9% and 74.5%
same,Cell viability,"ML-2 [1]; ML-2, 48 h",80.4% and 75.1% and 78.2%
same,differentiation level (CD11b),"ML-2 [1]; ML-2, after 6–8 days of treatment",~90%
same,Annexin-V (%),ML-2 [1]; [5],0% and 1.81% and 2.3%
same,CD11b (%),ML-2 [1]; [5],9.3% and 9.32% and 7.24%
same,Annexin-V (%),ML-2 [1]; [6],0% and 8.27% and 5.87%
same,CD11b (%),ML-2 [1]; [6],24.52% and 30.8% and 32.5%
same,Annexin-V (%),ML-2 [1]; [7],7.16% and 8.18% and 7.5%
same,CD11b (%),ML-2 [1]; [7],47.58% and 64.3% and 58.4%
same,Annexin-V (%),ML-2 [1]; [8],12.1% and 4.47% and 9.8%
same,CD11b (%),ML-2 [1]; [8],89.87% and 81.3% and 87.3%
same,Annexin-V (%),ML-2 [1]; [9],10.64% and 10.25% and 11.25%
same,CD11b (%),ML-2 [1]; [9],92.1% and 91.7% and 93.4%
same,CD11b (%),"ML-2 [1]; ML-2 cell line, replicates 1-3 (Figure 2A)",86.3% and 76.9% and 74.7%
same,CD11b levels,"ML-2 [1]; ML-2 treated daily for 48 h, replicates (Fig 6E)",70.9 and 75.6 and 72.7
same,Number of proteins with >5 Acetyl-K sites per protein,ML-2 [2],14
same,"Acetyl-K sites regulated, Number, Histone proteins",ML-2 [2],58
same,"Acetyl-K sites regulated, Number, Non-histone proteins",ML-2 [2],766
same,"Acetyl-K sites regulated, Percentages, Histone proteins",ML-2 [2],7
same,"Acetyl-K sites regulated, Percentages, Non-histone proteins",ML-2 [2],93
same,"Acetyl-K sites: Down-regulated, %",ML-2 [2]; ML-2 (Fig 4C),11.9%
same,"Acetyl-K sites: Down-regulated, Number",ML-2 [2]; ML-2 (Fig 4C),429
same,"Acetyl-K sites: Non-regulated, %",ML-2 [2]; ML-2 (Fig 4C),77.2%
same,"Acetyl-K sites: Non-regulated, Number",ML-2 [2]; ML-2 (Fig 4C),2794
same,Acetyl-K sites: Quantified (total number),ML-2 [2]; ML-2 (Fig 4C),3618
same,"Acetyl-K sites: Regulated, %",ML-2 [2]; ML-2 (Fig 4C),22.8%
same,"Acetyl-K sites: Regulated, Number",ML-2 [2]; ML-2 (Fig 4C),824
same,"Acetyl-K sites: Up-regulated, %",ML-2 [2]; ML-2 (Fig 4C),10.9%
same,"Acetyl-K sites: Up-regulated, Number",ML-2 [2]; ML-2 (Fig 4C),395
same,fraction of regulated acetylation sites upregulated,"ML-2 [2]; ML-2, 25% GI50, 12 h",47.9%
same,"Acetyl-K sites, Down-regulated","ML-2 [2]; ML-2, 25% GI50, 12 h",429
same,"Acetyl-K sites, Up-regulated","ML-2 [2]; ML-2, 25% GI50, 12 h",395
same,regulated Acetyl-K sites in Histone proteins,"ML-2 [2]; ML-2, 25% GI50, 12 h",58
same,regulated Acetyl-K sites in Non-histone proteins,"ML-2 [2]; ML-2, 25% GI50, 12 h",766
same,percentage of Acetyl-K sites regulated,"ML-2 [2]; ML-2, 25% GI50, 12 h",22.8%
same,acetyl K-sites regulated specifically by the compound,ML-2 [2]; [3],202
same,fraction of regulated acetylation sites upregulated,ML-2 [2]; [3],49.7%
same,Number of proteins with 1 Acetyl-K site per protein,ML-2 [2]; [4],421
same,Number of proteins with 2 Acetyl-K sites per protein,ML-2 [2]; [4],79
same,Number of proteins with 3 Acetyl-K sites per protein,ML-2 [2]; [4],29
same,Number of proteins with 4 Acetyl-K sites per protein,ML-2 [2]; [4],14
